From ChEMBL document CHEMBL4613312, “Predictive Gene Signature for Pyrazolopyrimidine Derivative c-Src Inhibitor 10a Sensitivity in Melanoma Cells” (ACS Med Chem Lett, 2020)
Activity calls are given as the source filed them.

How the values were obtained:
[1] = Synergistic cytotoxicity against human M193 cells assessed as combination index at 20 uM measured after 72 hrs in presence of 4 mM sodium valproate by Celltiter-Glo luminescent assay based Chou-Talalay method; type: functional
[2] = tested on: M34; assay: Upregulation of TMED7 mRNA level in human M34 cells by SYBR-green dye based qRT-PCR analysis; type: functional, cell-based
[3] = species: Homo sapiens; assay: Upregulation of PLOD2 mRNA level in human M433 cells by SYBR-green dye based qRT-PCR analysis; type: functional, cell-based
[4] = Cytotoxicity against human M221 cells assessed as reduction in cell viability at 20 uM measured after 72 hrs by Celltiter-Glo luminescent assay relative to control; type: functional
[5] = species: Homo sapiens; assay: Upregulation of PLOD2 mRNA level in human M221 cells by SYBR-green dye based qRT-PCR analysis; type: functional, cell-based
[6] = species: Homo sapiens; assay: Downregulation of XRCC5 mRNA level in human M221 cells by SYBR-green dye based qRT-PCR analysis; type: functional, cell-based
[7] = Cytotoxicity against human M133 cells assessed as reduction in cell viability measured after 72 hrs by Celltiter-Glo luminescent assay; type: functional, cell-based
[8] = Synergistic cytotoxicity against human M221 cells assessed as combination index at 20 uM measured after 72 hrs in presence of 0.05 mM sodium valproate by Celltiter-Glo luminescent assay based Chou-Talalay method; type: functional
[9] = Chemosensitization activity in human M221 cells assessed as reduction in cell viability at 20 uM measured after 72 hrs in presence of 50 nM sodium valproate by Celltiter-Glo luminescent assay relative to control; type: functional
[10] = Cytotoxicity against human M1 cells assessed as reduction in cell viability measured after 72 hrs by Celltiter-Glo luminescent assay; type: functional, cell-based
[11] = tested on: M34; assay: Cytotoxicity against human M34 cells assessed as reduction in cell viability measured after 72 hrs by Celltiter-Glo luminescent assay; type: functional, cell-based; details: M34, 72 h
[12] = species: Homo sapiens; assay: Downregulation of NSUN5 mRNA level in human M193 cells by SYBR-green dye based qRT-PCR analysis; type: functional, cell-based
[13] = species: Homo sapiens; assay: Upregulation of TMED7 mRNA level in human M221 cells by SYBR-green dye based qRT-PCR analysis; type: functional, cell-based
[14] = species: Homo sapiens; assay: Downregulation of NSUN5 mRNA level in human M433 cells by SYBR-green dye based qRT-PCR analysis; type: functional, cell-based
[15] = species: Homo sapiens; assay: Downregulation of XRCC5 mRNA level in human M193 cells by SYBR-green dye based qRT-PCR analysis; type: functional, cell-based
[16] = Chemosensitization activity in human M193 cells assessed as reduction in cell viability at 20 uM measured after 72 hrs in presence of 6 mM sodium valproate by Celltiter-Glo luminescent assay relative to control; type: functional
[17] = Cytotoxicity against human M144 cells assessed as reduction in cell viability measured after 72 hrs by Celltiter-Glo luminescent assay; type: functional, cell-based
[18] = Cytotoxicity against human M2025 cells assessed as reduction in cell viability measured after 72 hrs by Celltiter-Glo luminescent assay; type: functional, cell-based
[19] = species: Homo sapiens; assay: Upregulation of PLOD2 mRNA level in human M193 cells by SYBR-green dye based qRT-PCR analysis; type: functional, cell-based
[20] = tested on: M34; assay: Downregulation of NSUN5 mRNA level in human M34 cells by SYBR-green dye based qRT-PCR analysis; type: functional, cell-based
[21] = Synergistic cytotoxicity against human M193 cells assessed as combination index at 20 uM measured after 72 hrs in presence of 6 mM sodium valproate by Celltiter-Glo luminescent assay based Chou-Talalay method; type: functional
[22] = species: Homo sapiens; assay: Upregulation of PLOD2 mRNA level in human M2025 cells by SYBR-green dye based qRT-PCR analysis; type: functional, cell-based
[23] = Chemosensitization activity in human M221 cells assessed as reduction in cell viability at 20 uM measured after 72 hrs in presence of 0.8 mM sodium valproate by Celltiter-Glo luminescent assay relative to control; type: functional
[24] = Chemosensitization activity in human M193 cells assessed as reduction in cell viability at 20 uM measured after 72 hrs in presence of 4 mM sodium valproate by Celltiter-Glo luminescent assay relative to control; type: functional
[25] = Cytotoxicity against human M307 cells assessed as reduction in cell viability measured after 72 hrs by Celltiter-Glo luminescent assay; type: functional, cell-based
[26] = Cytotoxicity against human M193 cells assessed as reduction in cell viability measured after 72 hrs by Celltiter-Glo luminescent assay; type: functional, cell-based
[27] = species: Homo sapiens; assay: Upregulation of TMED7 mRNA level in human M2025 cells by SYBR-green dye based qRT-PCR analysis; type: functional, cell-based
[28] = Cytotoxicity against human M187 cells assessed as reduction in cell viability measured after 72 hrs by Celltiter-Glo luminescent assay; type: functional, cell-based
[29] = Cytotoxicity against human M24 cells assessed as reduction in cell viability measured after 72 hrs by Celltiter-Glo luminescent assay; type: functional, cell-based; details: M24, 72 h
[30] = species: Homo sapiens; assay: Downregulation of XRCC5 mRNA level in human M433 cells by SYBR-green dye based qRT-PCR analysis; type: functional, cell-based
[31] = species: Homo sapiens; assay: Downregulation of XRCC5 mRNA level in human M2025 cells by SYBR-green dye based qRT-PCR analysis; type: functional, cell-based
[32] = species: Homo sapiens; assay: Downregulation of NSUN5 mRNA level in human M221 cells by SYBR-green dye based qRT-PCR analysis; type: functional, cell-based
[33] = Synergistic cytotoxicity against human M221 cells assessed as combination index at 20 uM measured after 72 hrs in presence of 0.2 mM sodium valproate by Celltiter-Glo luminescent assay based Chou-Talalay method; type: functional
[34] = species: Homo sapiens; assay: Upregulation of TMED7 mRNA level in human M433 cells by SYBR-green dye based qRT-PCR analysis; type: functional, cell-based
[35] = Synergistic cytotoxicity against human M193 cells assessed as combination index at 20 uM measured after 72 hrs in presence of 0.8 mM sodium valproate by Celltiter-Glo luminescent assay based Chou-Talalay method; type: functional
[36] = Cytotoxicity against human SHM20A2 cells assessed as reduction in cell viability measured after 72 hrs by Celltiter-Glo luminescent assay; type: functional, cell-based
[37] = Cytotoxicity against human M221 cells assessed as reduction in cell viability measured after 72 hrs by Celltiter-Glo luminescent assay; type: functional, cell-based
[38] = Chemosensitization activity in human M221 cells assessed as reduction in cell viability at 20 uM measured after 72 hrs in presence of 200 nM sodium valproate by Celltiter-Glo luminescent assay relative to control; type: functional
[39] = Synergistic cytotoxicity against human M221 cells assessed as combination index at 20 uM measured after 72 hrs in presence of 0.8 mM sodium valproate by Celltiter-Glo luminescent assay based Chou-Talalay method; type: functional
[40] = species: Homo sapiens; assay: Downregulation of NSUN5 mRNA level in human M2025 cells by SYBR-green dye based qRT-PCR analysis; type: functional, cell-based
[41] = Cytotoxicity against human M193 cells assessed as reduction in cell viability at 20 uM measured after 72 hrs by Celltiter-Glo luminescent assay relative to control; type: functional
[42] = tested on: M34; assay: Downregulation of XRCC5 mRNA level in human M34 cells by SYBR-green dye based qRT-PCR analysis; type: functional, cell-based
[43] = Cytotoxicity against human M189 cells assessed as reduction in cell viability measured after 72 hrs by Celltiter-Glo luminescent assay; type: functional, cell-based
[44] = Cytotoxicity against human M433 cells assessed as reduction in cell viability measured after 72 hrs by Celltiter-Glo luminescent assay; type: functional, cell-based
[45] = Cytotoxicity against human M7 cells assessed as reduction in cell viability measured after 72 hrs by Celltiter-Glo luminescent assay; type: functional, cell-based
[46] = Cytotoxicity against human M77 cells assessed as reduction in cell viability measured after 72 hrs by Celltiter-Glo luminescent assay; type: functional, cell-based
[47] = tested on: M34; assay: Upregulation of PLOD2 mRNA level in human M34 cells by SYBR-green dye based qRT-PCR analysis; type: functional, cell-based
[48] = species: Homo sapiens; assay: Upregulation of TMED7 mRNA level in human M193 cells by SYBR-green dye based qRT-PCR analysis; type: functional, cell-based
[49] = Chemosensitization activity in human M193 cells assessed as reduction in cell viability at 20 uM measured after 72 hrs in presence of 0.8 mM sodium valproate by Celltiter-Glo luminescent assay relative to control; type: functional
[50] = species: Homo sapiens; assay: Cytotoxicity against human M193 cells assessed as reduction in cell viability at 0.8 to 6 mM measured after 72 hrs by Celltiter-Glo luminescent assay; type: functional, cell-based
[51] = species: Homo sapiens; assay: Cytotoxicity against human M221 cells assessed as reduction in cell viability at 50 to 800 nM measured after 72 hrs by Celltiter-Glo luminescent assay; type: functional, cell-based

CSc1nc(Nc2cccc(Cl)c2)c2cnn(CCc3ccccc3)c2n1
0.09 to 9.01 µM: IC50 [7] | IC50 [10] | IC50 [11] | IC50 [17] | IC50 [18] | IC50 [25] | IC50 [26] | IC50 [28] | IC50 [29] | IC50 [36] | IC50 [37] | IC50 [43] | IC50 [44] | IC50 [45] | IC50 [46]
92%: Activity [23]
0.835: CI [35]
55%: Activity [4]
0.603: CI [39]
47%: Activity [41]
84%: Activity [24] | Activity [38]
0.766: CI [8]
0.76: CI [1]
0.681: CI [33]
0.696: CI [21]
active: Activity [2] | Activity [3] | Activity [5] | Activity [6] | Activity [12] | Activity [13] | Activity [14] | Activity [15] | Activity [19] | Activity [20] | Activity [22] | Activity [27] | Activity [30] | Activity [31] | Activity [32] | Activity [34] | Activity [40] | Activity [42] | Activity [47] | Activity [48]
75%: Activity [9] | Activity [49]
89%: Activity [16]

CCCC(CCC)C(=O)O
inactive: Activity [50] | Activity [51]
